Structures can show the parent of a compound that is named as a salt.
Columns and labels:
GRABNE1m [1] = experiment: Dual-color time-lapse imaging in HeLa cells co-expressing DA1.2 and NE1m, green channel; type: cell-based; details: for NE1m fluorescence response to ligand: NE 1 µM then DA 5 µM
Description: (§1) Stock solutions for the compounds were dissolved in the appropriate vehicle, and a volume from 0.95 to 1 µl was prepared in each 1.5-ml microcentrifuge tube. Compounds were mixed with 0.5 ml imaging buffer from the well and applied to the same well at each time point during imaging (Additional file 1: Fig. S4b). For temperature equilibration of the imaging buffer, 0.5 ml of the imaging buffer was transferred from the well into an empty 1.5-ml microcentrifuge tube and then applied to the buffer in the same well; this procedure repeated 5 times (Additional file 1: Fig. S4c). The procedure for the compound application in the time-lapse imaging is shown in Additional file 1: Fig. S5. The ‘ligand’ dissolved in the appropriate vehicle was applied at the imaging time point shown by the arrow; the ‘vehicle’ was applied at the same time point.
We used Fiji, a distribution of ImageJ [44], for the preparation of quantification and measurement of all imaging files. Principally, for all images, the background was subtracted, and images were registered by StackReg (http://bigwww.epfl.ch/thevenaz/stackreg/), a Fiji plugin to correct misregistration, if required. Note that the median filter was used for the time-lapse images of the neuron before registration to remove camera noise preventing registration. Then, regions of interests (ROIs) were selected for the first time point in time-lapse imaging or in the images before the compound application, to surround the whole cell body for HeLa cells and a dendrite near the cell body for hippocampal neurons. […] In order to normalize the fluorescence changes with the amount of biosensor expression, ΔF/F0 was calculated using the intensity before the compound application. For the time-lapse experiments, the value used for F0 was the mean intensity before compound application. The image of fluorescence change (ΔF/F0) was represented as the pseudocolor intensity-modulated display mode, where color represents the relative ratio value, whilst the brightness of the color represented the fluorescence intensity of the source images. […]

R-GenGAR-DA1.2 [2] = target: T1, R-GenGAR-DA1.2 (Homo sapiens, UniProt P21728); experiment: Dual-color time-lapse imaging in HeLa cells co-expressing DA1.2 and NE1m, red channel; type: cell-based
T1 sequence (P21728 with tags, fused parts or gaps): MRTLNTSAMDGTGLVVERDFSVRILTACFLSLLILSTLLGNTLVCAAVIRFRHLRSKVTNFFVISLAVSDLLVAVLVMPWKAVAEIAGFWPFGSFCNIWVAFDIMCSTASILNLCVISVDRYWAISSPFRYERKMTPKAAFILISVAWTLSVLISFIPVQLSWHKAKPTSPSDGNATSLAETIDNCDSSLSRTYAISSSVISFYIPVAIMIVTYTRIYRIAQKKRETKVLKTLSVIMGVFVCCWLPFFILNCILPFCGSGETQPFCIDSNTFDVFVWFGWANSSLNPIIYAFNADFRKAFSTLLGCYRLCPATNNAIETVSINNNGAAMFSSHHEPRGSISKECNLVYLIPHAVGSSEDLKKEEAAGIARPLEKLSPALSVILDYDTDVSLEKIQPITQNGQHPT
T1 sequence (Q9U6Y8 with tags, fused parts or gaps partner): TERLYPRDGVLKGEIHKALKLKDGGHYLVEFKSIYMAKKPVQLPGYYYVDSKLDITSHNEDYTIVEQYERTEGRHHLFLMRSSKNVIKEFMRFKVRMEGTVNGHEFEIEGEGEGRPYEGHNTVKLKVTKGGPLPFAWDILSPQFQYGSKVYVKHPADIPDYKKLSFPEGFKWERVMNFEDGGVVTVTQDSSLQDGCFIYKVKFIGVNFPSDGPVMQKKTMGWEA
Description: as §1
(§2) We used Fiji, a distribution of ImageJ [44], for the preparation of quantification and measurement of all imaging files. […] In order to normalize the fluorescence changes with the amount of biosensor expression, ΔF/F0 was calculated using the intensity before the compound application. […] The image of fluorescence change (ΔF/F0) was represented as the pseudocolor intensity-modulated display mode, where color represents the relative ratio value, whilst the brightness of the color represented the fluorescence intensity of the source images. […]

R-GenGAR-DA1.2 [3] = target: T1, R-GenGAR-DA1.2; experiment: Dual-color time-lapse imaging in rat primary hippocampal neurons co-expressing DA1.2 and NE1m, red channel; type: cell-based
Description: (§3) Primary cultures of rat hippocampal neurons were prepared similarly to that described previously. Female pregnant Wistar/ST rats (total 8 rats) arrived from Japan SLC on the day of the experiment. A pregnant rat with embryonic rats (embryonic days 19) was killed by CO2 inhalation and then embryos (10 embryos per pregnant rat) were removed and decapitated. […] To dissociate hippocampal neurons, hippocampi were treated with 10 units/ml papain (LS003126, Worthington Biochemical) for 10 min at 37 °C. […] Half of the medium was removed and replaced with fresh medium every 7 days.
(§4) Stock solutions for the compounds were dissolved in the appropriate vehicle, and a volume from 0.95 to 1 µl was prepared in each 1.5-ml microcentrifuge tube. […]
as §2

GRABNE1m [4] = experiment: Dual-color time-lapse imaging in rat primary hippocampal neurons co-expressing DA1.2 and NE1m, green channel; type: cell-based
Description: as §3, §4, §2

R-GenGAR-DA1.2 [5] = target: T1, R-GenGAR-DA1.2; details: HeLa cells, all compounds 10 µM
Description: Stock solutions for the compounds were dissolved in the appropriate vehicle, and a volume from 0.95 to 1 µl was prepared in each 1.5-ml microcentrifuge tube. Compounds were mixed with 0.5 ml imaging buffer from the well and applied to the same well at each time point during imaging (Additional file 1: Fig. S4b). For temperature equilibration of the imaging buffer, 0.5 ml of the imaging buffer was transferred from the well into an empty 1.5-ml microcentrifuge tube and then applied to the buffer in the same well; this procedure repeated 5 times (Additional file 1: Fig. S4c). […] The ‘ligand’ dissolved in the appropriate vehicle was applied at the imaging time point shown by the arrow; the ‘vehicle’ was applied at the same time point.

R-GenGAR-DA1.2 [6] = target: T1, R-GenGAR-DA1.2; details: rat primary hippocampal neurons
Description: Primary cultures of rat hippocampal neurons were prepared similarly to that described previously [40]. Female pregnant Wistar/ST rats (total 8 rats) arrived from Japan SLC on the day of the experiment. A pregnant rat with embryonic rats (embryonic days 19) was killed by CO2 inhalation and then embryos (10 embryos per pregnant rat) were removed and decapitated. […] To dissociate hippocampal neurons, hippocampi were treated with 10 units/ml papain (LS003126, Worthington Biochemical) for 10 min at 37 °C. […] Half of the medium was removed and replaced with fresh medium every 7 days.

NCCc1ccc(O)c(O)c1 [DA, Dopamine]
NE1m fluorescence response to ligand (GRABNE1m [1]): not DA

NC[C@H](O)c1ccc(O)c(O)c1 [NE, L-noradrenaline bitartrate monohydrate]
DA1.2 fluorescence response to ligand (R-GenGAR-DA1.2 [2]; NE 1 µM then DA 5 µM): not to NE
NE1m fluorescence response to ligand (GRABNE1m [1]): increase in green fluorescence
DA1.2 fluorescence response to ligand (R-GenGAR-DA1.2 [3]; NE 1 µM then DA 5 µM): not NE
NE1m fluorescence response to ligand (GRABNE1m [4]; NE 1 µM): increase in NE1m green fluorescence

CN1CCc2cc(Cl)c(O)cc2[C@@H](c2ccccc2)C1 [SCH, R( +)-SCH 23390 hydrochloride]
effect of antagonist on DA1.2 response to DA (R-GenGAR-DA1.2 [2]; SCH 5 µM): blocked
effect of antagonist on DA1.2 response to DA (R-GenGAR-DA1.2 [3]; SCH 5 µM): restored
effect of antagonist on the response of DA1.2 to DA (R-GenGAR-DA1.2 [5]): blocked
effect of antagonist applied after DA on DA1.2 fluorescence (R-GenGAR-DA1.2 [6]; SCH 5 µM after DA 5 µM): restored to baseline
effect of antagonist pretreatment on response of DA1.2 to DA (R-GenGAR-DA1.2 [6]; SCH before DA): completely suppressed

COC(=O)[C@@H]1[C@H]2C[C@H]3c4[nH]c5ccccc5c4CCN3C[C@@H]2CC[C@@H]1O [YO, yohimbine hydrochloride]
effect of antagonist on NE1m fluorescence response (GRABNE1m [1]; YO 1 µM): recovered to its basal level
effect of antagonist on NE1m fluorescence response (GRABNE1m [4]; YO 1 µM): blocked
